Laboratory results taken from patent US20210095293A1, “METHODS OF TREATING CANCERS WITH GPR132 INHIBITORS” (The Board of Regents of the University of Texas System, priority 2016, published 2021).
Where a name gives a salt, the structure may show the parent alone.

Assays:
Type in all cases: cell-based, mouse
Gpr132 = experiment: calcium mobilization assay in BMDMs; settings: WT or Gpr132-KO BMDMs stimulated with 25 mM
Procedure: FIG. 27. […] WT or Gpr132-KO BMDMs were stimulated with 25 mM lactate (Left) or HCl (Right) (n=3).
To determine whether Gpr132 is required for lactate signaling in macrophages, a calcium mobilization assay was performed. […] First, lactate levels in the CM of distinct cancer cell lines were measured using a Vitros 250 chemistry analyzer. […] Second, the effects of blocking lactate production from EO771 and 4T1.2 cells by oxamic acid, an inhibitor of lactate dehydrogenase was tested.

[1] = system: bone marrow derived macrophages (BMDMs); experiment: macrophage M2-like morphology (elongation); settings: cancer cells treated with oxamic acid 90 mM for 3 days before CM harvest
From the text: FIGS. 9A-9D. Tumor-derived factors activate M2-like macrophages via Gpr132. (FIG. 9A) The pH values of conditioned media (CM) from cancer cells or macrophages (n=5-8); *p<0.05, ****p<0.001 compared with RAW 264.7 macrophage CM. (FIG. 9B) Western blot for CD206 and Gpr132 in RAW 264.7 macrophages after treatment with indicated cancer cell CM for 24 hrs. Actin was used as a loading control. The CD206/actin or Gpr132/actin ratio was quantified and shown as fold changes compared to control (n=3); *p<0.05, ***p<0.005 compared with control. (FIG. 9C) Flow cytometry analysis of Gpr132 and CD206 in BMDMs with or without EO771 CM treatment. The experiments were repeated twice and the representative results are shown. (FIG. 9D) Immunofluorescence staining for CD11b in WT and Gpr132-KO BMDMs after differentiation in the absence or presence of 30% EO771 CM or 4T1.2 CM for 7 days. Elongated macrophage morphology indicates a M2-like phenotype. Nuclei were stained with DAPI. Scale bar, 25 μm. WT, wild-type; Gpr132-KO, Gpr132 knockout.
FIGS. 10A-10F. […] LC-MS was used to quantify lactate in the eluent of Gpr132 co-IP. (Left) Representative LC-MS chromatograms; (Right) Quantification of relative lactate binding (n=3). ****p<0.001 compared with WT. […] CD206/actin ratio was quantified and shown as fold changes compared to control (n=3-4); *p<0.05 compared with WT control. […]

[2] = system: breast cancer cells (4T1.2, EO771); experiment: Boyden chamber assay, cancer cell migration; settings: oxamic acid 90 mM pre-treatment; WT macrophages
Procedure: (§1) FIGS. 11A-11C. Lactate-activated macrophage promotes cancer cell adhesion, migration and invasion via Gpr132. (FIG. 11A) Adherence assays. 4T1.2 cells were suspended in fibronectin ([…]) pre-coated plates with CM from spleen-derived macrophages (mf) that were treated with 4T1.2 CM or lactate (5 mM) with or without Gpr132 antibody (6 mg/ml) or normal IgG (6 mg/ml) for 10 min. The adhered cells were stained with crystal violet, dissolved in 1% Triton X-100 and measured by OD590. (FIGS. 11B-11C) Boyden chamber assay of cancer cell migration and invasion. 4T1.2 cells (B) or EO771 cells (FIG. 11C) were plated on the upper chamber inserts, with untreated (Control), 4T1.2 CM-activated or lactate-activated spleen-derived WT or Gpr132-KO macrophages plated in the lower chambers. For invasion assay, the inserts were pre-coated with 60 μl matrigel. After migration for 6 hrs (FIG. 11B) or invasion for 24 hrs (FIG. 11C), the migrated or invaded cells were stained with crystal violet and counted as cells per field of view under microscope (n=3-4); For (FIG. 11C), the first bar of each data set of the bar graphs represents the control mf, and the second bar represents Gpr132KO; *p<0.05; **p<0.01; ***p<0.005; ****p<0.001. Scale bar, 500 μm.
(§2) FIGS. 23A-23B. Cancer cell-derived lactate activates macrophages to promote cancer cell migration and invasion via Gpr132. (FIGS. 23A-23B) Boyden chamber assay. EO771 or 4T1.2 cells were cultured in the presence or absence of oxamic acid (90 mM) for 3 days. CM was harvested after the cells were cultured for another 24 hrs without oxamic acid. As a rescue, CM of oxamic acid-treated EO771 or 4T1.2 cells was supplemented with exogenous lactate. […] After migration for 6 hrs (FIG. 23A) or invasion for 24 hrs (FIG. 23B), the migrated or invaded cells were stained with crystal violet and counted as cells per field of view under microscope (n=3-4); for (FIG. 23A), the bars in each data set of the bar graph represent, from left to right, control, EO771, Oxamic acid, and Oxamic acid+Lactate; for (FIG. 23B), the bars in each data set of the bar graph represent, from left to right, control, 4T1.2CM, Oxamic acid, and Oxamic acid+Lactate; *p<0.05; ****p<0.001. […]
Migration or invasion of breast cancer cells was examined using 24-well Boyden chambers (Corning, Corning, N.Y.) with transwell inserts of […] pore size, coated without (for migration) or with matrigel (for invasion) as previously reported. […] The migrated or invaded cells were fixed with methanol and stained with crystal violet (0.05%, sigma), and then counted as cells per field of view under microscope or measured as OD570 after crystal violet was dissolved.

[3] = system: breast cancer cells (EO771, 4T1.2); experiment: Boyden chamber assay, cancer cell invasion (matrigel); settings: oxamic acid 90 mM pre-treatment; WT macrophages
Procedure: as §1
as §2, with “acid.” for “acid. As a rescue, CM of oxamic acid-treated EO771 or 4T1.2 cells was supplemented with exogenous lactate.”

EO771 and 4T1.2 cells = experiment: lactate and pH in cancer cell conditioned media; settings: oxamic acid 90 mM for 3 days, CM after another 24 hrs
Procedure: FIGS. 18A-18E. Lactate secreted by EO771 and 4T1.2 cells is responsible for the low pH in their CM. (FIG. 18A) Lactate levels in the conditional media (CM) from various cancer cells (n=3); *p<0.05, ****p<0.001 compared with EO771 CM; #### p<0.001 compared with 4T1.2 CM. (FIG. 18B) Lactate levels in EO771 CM at the indicated time point of culture (n=3). (FIG. 18C) Lactate levels in the whole CM, <3 kDa and >3 kDa fractions of CM from 24 h EO771 cell cultures (n=3). (FIGS. 18D-18E) EO771 and 4T1.2 cells were treated with or without oxamic acid (90 mM) for 3 days. CM was harvested after the cells were cultured for another 24 hrs without oxamic acid before lactate (FIG. 18D) and pH (FIG. 18E) quantification (n=3). **p<0.01, ***p<0.005, ****p<0.001.
RAW264.7, EO771, 4T1.2, PY8119, PY230, SCP-4, SCP-6, SCP-28, MDA-1883, MDA-2287 and B16F10 cell lines were cultured in culture media containing 10% FBS (Sigma) and 1:100 antibiotic-antimycotic (Gibco). Conditioned media were obtained from serum-free media after culturing cells for 24 hrs or as indicated. Bone marrow-derived macrophages (BMDMs) and spleen-derived macrophages from WT and Gpr132-KO mice were cultured as previously described. Lactate in the conditioned media was quantified using a Vitros 250 chemistry analyzer at the UT Southwestern Metabolic Phenotyping Core.

macrophages = experiment: M2 marker expression in macrophages (Western blot, RT-qPCR, flow cytometry); settings: IL-4 10 ng/ml for 16 hrs, spleen macrophages
Procedure: After blocking with 10% BSA for 10 min, cells were incubated with anti-CD206 (Rabbit polyclonal, Abcam) or anti-Gpr132 (Rabbit polyclonal, Sigma) antibodies (1:100) for 30 min at 4° C., washed with cold PBS, and then incubated with FITC-conjugated secondary antibodies (1:100) for 30 min at 4° C. After washing twice using cold PBS, cells were analyzed by flow cytometer (Becton Dickinson). RNA was isolated from cells or mouse tissues using Trizol (Invitrogen) following the manufacturer's instructions. RNA (200-500 ng) was first treated with RNase-free DNase I using the DNA-free kit (Ambion) to remove all genomic DNA, and then reverse-transcribed into cDNA using an ABI High Capacity cDNA RT Kit (Invitrogen). The cDNA was analyzed using real-time quantitative PCR (SYBR Green, Invitrogen) with an Applied Biosystems 7900 Sequence Detection System. Each reaction was performed in triplicate in a 384-well format. The expression of each gene was normalized by that of mouse ribosomal protein L19. Samples of 20 μg protein were applied to SDS polyacrylamide gels. After protein transfer, membranes were incubated with antibodies for […] (rabbit polyclonal, Santa Cruz Biotechnology), CD206, Gpr132, or β-actin (mouse monoclonal, Sigma) (1:1000) overnight at 4° C. Membranes were washed, and then incubated with HRP-conjugated secondary antibodies (1:1000) for 1 hr at room temperature before signal detection by chemiluminescence (Pierce). Densitometric quantification was performed by Image-Pro Plus 6.0 software (Media Cybernetics). PathScan Akt Signaling Antibody Array (Cell Signaling) was incubated with macrophage proteins and analyzed following kit instructions.

Cl [hydrochloric acid (HCl), hydrochloric acid]
effect of Gpr132 deletion on triggered calcium mobilization (Gpr132): not

NC(=O)C(=O)O [oxamic acid]
ability of EO771 or 4T1.2 CM to induce M2-like morphology in WT BMDMs [1]: completely abolished
effects of CM-activated WT macrophages on cancer cell migration after pre-treatment of cancer cells [2]: abolished
effects of CM-activated WT macrophages on cancer cell invasion after pre-treatment of cancer cells [3]: abolished
lactate in the CM (EO771 and 4T1.2 cells): depleted

B1: IL-4: standard T helper 2 cytokine used to trigger macrophage M2 activation (protein, UniProt P05112 25-153, looked up)
Interleukin-4: HKCDITLQEIIKTLNSLTEQKTLCTELTVTDIFAASKNTTEKETFCRAATVLRQFYSHHEKDTRCLGATAQQFHRHKQLIRFLKRLDRNLWGLAGLNSCPVKEANQSTLENFLERLKTIMREKYSKCSS
induction of M2 markers (Arg-1, CCL17, CCL22, PPAR-γ, YM-1, YM-2), WT vs Gpr132-KO macrophages (macrophages): equally well
